Tests used:
[1] = target: T1, full-length human Tau (hTau40) (Homo sapiens, UniProt P10636); assay: Tau oligomerization inhibition assay (heparin-induced, thioflavin S fluorescence); format: biochemical; conditions: 2 µM Tau, heparin-induced, ThS; buffer A pH 6.9; 25 °C per table footnote (37 °C in method); mean ± SD; read-out: Inhibition of Aggregation IC50
T1 construct: The full-length human Tau (hTau40) was expressed in a transformed E. coli BL21 (DE3) strain; made in house; host or cells: E. coli BL21 (DE3)
Description: Tau oligomerization inhibition assay was performed at 37 °C in 96-well plates by monitoring thioflavin-S fluorescence at 520 nm after excitation at 440 nm using a microplate reader (POLARstar Omega system, BMG Labtech, Paris, France). The Tau oligomerization process was induced by heparin. […] The plates were shaken at 200 rpm for 10 s before each measurement. The real value of fluorescence at the plateau was determined using SciDAVis v1.23 software. Data were fitted to the SciDAVis built-in ExpGrowth equation by means of nonlinear least-squares regression analysis. Y = Y0 + A × exp(x/t)(1)
The unscaled Levenberg–Marquardt algorithm was used, and initial values were given to Y0, A, and t. The final Y0 value of the model corresponds to the plateau value. The plateau values were then used to calculate the Tau oligomerization inhibition percentage. The IC50 for each compound was calculated from the scatter plot of Tau oligomerization inhibition (in percentage) as a function of log10 of compound concentration. The IC50 value (in µM) thus corresponds to ten raised to the power of […].

[2] = target: T2, Tau protein (full-length human Tau, hTau40) (Homo sapiens, UniProt P10636); assay: Tau intrinsic fluorescence quenching, modified Stern–Volmer binding parameters; conditions: 5 µM Tau, buffer B pH 6.8, mean ± SD; for Kd: read-out: Equilibrium Binding Constants to Tau, KD
T2 construct: The full-length human Tau (hTau40) was expressed in a transformed E. coli BL21 (DE3) strain; made in house; host or cells: E. coli BL21 (DE3)
Description: Fluorescence measurements were performed with a Horiba Jobin Yvon FluoroMax-3 spectrofluorometer. […] For experiments, the excitation wavelength was fixed at 275 nm, and the emission spectra were recorded between 280 nm and 500 nm at room temperature. The inner filter effects were corrected according to Lakowicz as follows:F = Fobs × exp{(Aem + Aex)/2}(2) where Fobs and F are the observed and corrected fluorescence values at the emission wavelength of 303 nm. Aex and Aem are the absorptions at the excitation and emission wavelengths, respectively, calculated with A = ε.l.C, in which ε is the extinction coefficient of Tau, l is the path length of cuvette, and C is Tau concentration.
The total fluorescence in the absence of quencher (F0) is given by:F0 = F0a + F0b(4) where 0 refers to the fluorescence intensity in the absence of quencher.
In the presence of quencher, we defined fa as the fraction of the initial fluorescence of Tau accessible to compounds:fa = F0a/(F0a + F0b)(5)
Therefore, the intensity of the accessible fraction (fa) is decreased according to the Stern–Volmer equation, whereas the buried fraction is not quenched, as given by:F = {F0a/(1 + K.[Q])} + F0b(6)
Then, subtraction of Equations (6) and (4) yields:ΔF = F0 − F = F0a × {K.[Q]/(1 + K.[Q])}(7)
At last, inversion of Equation (7) followed by division into Equation (4) yields:F0/ΔF = {1/(fa.K.[Q])} + 1/fa(8)
We applied this modified form of the Stern–Volmer equation to graphically determine the values of fa and K. For our experiments, we plotted F0/ΔF against 1/[Q], then we determined the fa value at the point of intersection with the y-axis, while the slope represented (faK)^−1.

[3] = tested on: U87 glioblastoma cells; assay: MTT cell viability assay, U87; format: cell-based, human; conditions: Homo sapiens; U87, 72 h, MTT; mean ± SEM; read-out: IC50 (metabolic activity)
Description: (§1) Cells harvested from sub-confluent monolayers were seeded at 15,000 cells per mL in a 96-well microtiter plate (Cambridge Technology, Labège, France) and cultured for 24 h under standard conditions. Standard medium was then replaced by fresh medium containing no drugs or compounds at different concentrations. The surviving cells were quantified after 72 h by the MTT assay, according to the manufacturer’s instructions. Briefly, 20 µL of 3-(4,5-diMethylThiazol-2-yl)-2,5diphenyl Tetrazolium bromide (MTT) solution at 5 mg.mL^−1 was added to cells for 3 h at 37 °C. The supernatant was discarded and replaced by 100 µL of dimethyl sulfoxide to dissolve formazan crystals. The absorbance was then read at 600 nm by spectrophotometry. For all concentrations of a given compound, cell viability was expressed as the percentage of the ratio between the mean absorbance of treated cells and the mean absorbance of untreated cells. Three independent experiments were performed, and the data were expressed as percentage of survival (using the untreated cells as 100%) and subjected to statistical analysis (n = 3). The IC50 was calculated using the Chou and Talalay method.

[4] = tested on: U251 glioblastoma cells; assay: MTT cell viability assay, U251; format: cell-based; conditions: Homo sapiens, U-251, U251, 72 h, mean ± SEM, read-out: IC50 (metabolic activity)
Description: as §1

[5] = tested on: U138 glioblastoma cells; assay: MTT cell viability assay, U138; format: cell-based; conditions: Homo sapiens, U138, 72 h, mean ± SEM, read-out: IC50 (metabolic activity)
Description: as §1

[6] = tested on: T98G glioblastoma cells; assay: MTT cell viability assay, T98G; format: cell-based; conditions: Homo sapiens, 72 h, mean ± SEM, read-out: IC50 (metabolic activity)
Description: as §1

[7] = tested on: U87 shCTRL cells; assay: MTT cell viability assay, U87 shCTRL (expressing Tau); format: cell-based, human; conditions: Homo sapiens; U87 shCTRL, 72 h, MTT; mean ± SEM; read-out: IC50 (metabolic activity)
Description: (§2) All cell lines were purchased from ATCC, Gaithersburg, MD, USA. Cells from human glioblastoma (clones U87 wt, HTB-14; U118, HTB-15; U251, HTB-12; U138, HTB-16), neuroblastoma (clone SK-N-SH, HTB-11), and colorectal adenocarcinoma (clone Caco-2, HTB-37) were routinely grown at 37 °C in a humidified atmosphere containing 5% CO2. Cells were maintained by regular passages in complete media supplemented with 10% FBS, 2mM of L-glutamine, 100 U/mL of penicillin, and 50 U/mL of streptomycin (Invitrogen, Paris, France). For U87 wt, U251, U138, and SK-N-SH cells, the medium consisted of EMEM (Lonza, Levallois Perret, France). U118 and Caco-2 lines were maintained in DMEM. The U87 wt-derived lines, U87 shCTRL, and U87 shTau2 cells were continuously maintained in complete EMEM medium supplemented with 0.4 µg/mL of puromycin. The shRNA sequences and the protocol of clone selection and Tau downregulation were previously described in [20]. For Tau expression rescue, the U87 shCTRL and U87 shTau cells were seeded two days prior to experiments at 4.10^5 cells per 60 mm dish in 6 mL of complete medium. Cells were transfected using LipofectAmine 2000 according to Invitrogen instructions and 8 µg EGFP-free plasmid constructs (for U87 shCTRL) and EGFP-hTau40 plasmid constructs (for U87 shTau) were used in total. One day prior to experiments, all cells were plated in a 96-well microtiter plate to prepare for viability assays. Cells were free from mycoplasma as determined by mycoalert tests (Lonza).
as §1

[8] = tested on: U87 shTau cells; assay: MTT cell viability assay, U87 shTau (Tau-depleted); format: cell-based; conditions: Homo sapiens, 72 h, mean ± SEM, read-out: IC50 (metabolic activity)
Description: as §2, §1

[9] = tested on: SK-N-SH neuroblastoma cells; assay: MTT cell viability assay, SK-N-SH; format: cell-based; conditions: Homo sapiens, 72 h, mean ± SEM, read-out: IC50 (metabolic activity)
Description: as §1

[10] = tested on: Caco-2 colon adenocarcinoma cells; assay: MTT cell viability assay, Caco-2; format: cell-based; conditions: Homo sapiens, Caco-2 (not expressing Tau), 72 h, mean ± SEM, read-out: IC50 (metabolic activity)
Description: as §1

T2 sequence (P10636 1-441 isoform P10636-8): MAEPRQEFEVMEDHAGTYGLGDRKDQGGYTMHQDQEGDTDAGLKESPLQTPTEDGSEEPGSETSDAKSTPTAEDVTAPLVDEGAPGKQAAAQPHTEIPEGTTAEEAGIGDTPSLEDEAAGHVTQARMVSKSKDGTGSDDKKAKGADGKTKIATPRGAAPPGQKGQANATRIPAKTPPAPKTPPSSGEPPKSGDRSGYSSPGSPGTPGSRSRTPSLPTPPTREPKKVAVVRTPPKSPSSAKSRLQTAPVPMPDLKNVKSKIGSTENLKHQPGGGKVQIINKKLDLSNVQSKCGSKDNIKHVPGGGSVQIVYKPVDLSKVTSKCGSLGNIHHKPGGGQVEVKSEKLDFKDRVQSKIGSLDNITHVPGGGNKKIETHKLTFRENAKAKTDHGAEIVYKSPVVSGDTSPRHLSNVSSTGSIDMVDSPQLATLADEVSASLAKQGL
T1 sequence (P10636 1-441 isoform P10636-8): as above

Compound | IC50 [1] | Kd [2] | IC50 [3] | IC50 [4] | IC50 [5] | IC50 [6] | IC50 [7] | IC50 [8] | Equilibrium Binding Constants to Tau, fA (Tyr accessible fraction) [2] | IC50 [9] | IC50 [10]
Nc1nc2ccc3oc(-c4cccc(F)c4)c(O)c(=O)c3c2s1 [Compound 10] | 9.9 ± 1.1 µM | 6.3 ± 1.2 µM | 2.6 ± 1.5 µM | 1 ± 0.4 µM | 0.9 ± 0.4 µM | 1.5 ± 0.7 µM | 1.2 ± 0.4 µM | 1.4 ± 0.6 µM |  |  | 
Nc1nc2ccc3oc(-c4ccc(F)cc4)cc(=O)c3c2s1 [Compound 8] | 15 ± 1.2 µM |  | > 100 µM | 3.6 ± 1.1 µM | 10.2 ± 5 µM | > 100 µM |  |  |  |  | 
Nc1nc2ccc3oc(-c4ccccc4)c(O)c(=O)c3c2s1 [Compound 12] | 12.4 ± 1.2 µM | 4.7 ± 1.3 µM | 4.1 ± 3.4 µM |  |  | 1.7 ± 0.9 µM | 0.6 ± 0.1 µM | 0.5 ± 0.3 µM | 0.19 ± 0.05 |  | 
Nc1nc2ccc3oc(-c4ccc(F)cc4)c(O)c(=O)c3c2s1 [Compound 11] | > 100 µM | 5.2 ± 1.8 µM | 5.1 ± 1.8 µM | 1.9 ± 0.2 µM | 5 ± 1.1 µM | 3.5 ± 1 µM | 0.3 ± 0.2 µM | 0.4 ± 0.4 µM | 0.16 ± 0.01 |  | 
COc1c(-c2ccccc2F)oc2ccc3nc(N)sc3c2c1=O [Compound 13] | 9 ± 0.6 µM | 5.4 ± 2.5 µM | 7.9 ± 3.4 µM | 1.7 ± 0.1 µM | 1.5 ± 0.3 µM | 9.2 ± 1.2 µM |  |  | 0.21 ± 0.02 |  | 
Nc1nc2ccc3oc(-c4ccccc4)cc(=O)c3c2s1 [Compound 3] | > 100 µM |  | > 100 µM | > 100 µM | > 100 µM | > 100 µM | > 100 µM | > 100 µM |  | > 100 µM | > 100 µM
Nc1nc2ccc3nc(-c4cccc(Oc5ccccc5)c4)[nH]c(=O)c3c2s1 [Compound 16] | 10.8 ± 2.2 µM | 5 ± 2.5 µM | > 100 µM | > 100 µM | > 100 µM | > 100 µM | > 100 µM | > 100 µM | 0.20 ± 0.03 |  | 

Results, then the molecule that gave them:

IC50 [1] | Kd [2] | IC50 [3] | IC50 [4] | IC50 [5] | IC50 [6] | IC50 [7] | IC50 [8] | Equilibrium Binding Constants to Tau, fA (Tyr accessible fraction) [2] | IC50 [9] | IC50 [10] | Compound
6.5 ± 0.1 µM | 4.1 ± 1 µM | 8.8 ± 3.3 µM | 1.9 ± 0.2 µM | 4.1 ± 1.6 µM | 11.3 ± 4.1 µM |  |  | 0.23 ± 0.03 |  |  | COc1c(-c2ccc(F)cc2)oc2ccc3nc(N)sc3c2c1=O [Compound 15]
9.7 ± 0.2 µM | 2.4 ± 0.8 µM | > 100 µM | > 100 µM | > 100 µM | > 100 µM | > 100 µM | > 100 µM | 0.12 ± 0.01 | > 100 µM | > 100 µM | CCOC(=O)c1ccc(-c2cc(=O)c3c(ccc4nc(N)sc43)o2)cc1 [Compound 4]
> 100 µM | 3.5 ± 1 µM | 5.1 ± 0.8 µM | > 100 µM | > 100 µM | > 100 µM | > 100 µM | > 100 µM | 0.14 ± 0.05 | > 100 µM | > 100 µM | Nc1nc2ccc3nc(-c4ccc(Oc5ccccc5)cc4)[nH]c(=O)c3c2s1 [Compound 17]
17 ± 2.9 µM | 5.9 ± 1.6 µM | > 100 µM | > 100 µM | > 100 µM | > 100 µM |  |  | 0.21 ± 0.02 |  |  | Nc1nc2ccc3oc(-c4cccc(F)c4)cc(=O)c3c2s1 [Compound 7]
9 ± 0.5 µM |  | 2.6 ± 1.3 µM | 1.3 ± 0.4 µM | 1 ± 0.4 µM | 2.9 ± 0.7 µM |  |  |  |  |  | Nc1nc2ccc3oc(-c4ccccc4F)cc(=O)c3c2s1 [Compound 6]

Source: PMC10606064, “2-Aminothiazole-Flavonoid Hybrid Derivatives Binding to Tau Protein and Responsible for Antitumor Activity in Glioblastoma” (International Journal of Molecular Sciences, 2023)
